Like-named read-outs stand apart in the source and are kept apart here.
Assays:
[1] = system: Salmonella typhimurium tester strains TA97a, TA98, TA100, TA102, TA1537 and TA1538
Excerpt: The second property that is important in testing a compound for use in methods described herein is mutagenicity. The most widely used mutagen/carcinogen screening assay is the Ames test. This assay is described by D.M. Maron and B.N. Ames in Mutation Research 113:173 ( 1983) and a specific screen is described in detail in Example 17, below. The Ames test utilizes several unique strains of Salmonella typhimurium that are histidine- dependent for growth and that lack the usual DNA repair enzymes. The frequency of normal mutations that render the bacteria independent of histidine (i.e., the frequency of spontaneous revertants) is low. The test allows one to evaluate the impact of a compound on this revenant frequency.
Because some substances are not mutagenic by themselves, but are converted to a mutagen by metabolic action, the compound to be tested is mixed with the bacteria on agar plates along with the liver extract. The liver extract serves to mimic metabolic action in an animal.
The mixtures are allowed to incubate. Growth of bacteria (if any) is checked by counting colonies.
In this example the compounds described herein are tested for their dark mutagenicity using an Ames assay. The procedures used for the Salmonella mutagenicity test as described in detail by Maron and Ames were followed exactly. Maron, D.M. and B.N. Ames, Mutation Research 113: 173 ( 1983). A brief description for each procedure is given here. The tester strains TA97a, TA98, TA 100, TA102, TA1537 and TA1538 were obtained from Dr. Ames. TA97a, TA98, TA1537 and TA1538 are frameshift tester strains. TA100 and TA102 are base-substitution tester strains. Upon receipt each strain was cultured under a variety of conditions to confirm the genotypes specific to the strains.
The first tests done with the strains were to determine the range of spontaneous reversion for each of the strains. With each mutagenicity experiment the spontaneous reversion of the tester strains to histidine independence was measured and expressed as the number of spontaneous revertants per plate. This served as the background controls.
For all experiments, the pre-incubation procedure was used. In this procedure one vial of each tester strain was thawed and 20 µL of this culture was added to 6 mL of Oxoid Nutrient Broth #2. This solution was allowed to shake for 10 hours at 37°C. In the pre-incubation procedure, 0.1 mL of this overnight culture was added to each of the required number of sterile test tubes. To half of the tubes 0.5 mL of a 10% S-9 solution containing Aroclor 1254 induced rat liver extract (Molecular Toxicology Inc., Annapolis, MD), and MgCl2, KCl, glucose-6-phosphate, NADP, and sodium phosphate buffer (Sigma, St. Louis, Missouri) were added. To the other half of the tubes 0.5 mL of 0.2M sodium phospate buffer, pH 7.4, was used in place of the S-9 mixture (the - S9 samples). Finally 0.1 mL of the test solution containing either 0, 0.1, 0.5, 1, 5, 10, 50, 100, 250, or 500 µg/mL of the test compound was added. The 0.7 mL mixture was vonexed and then pre-incubated while shaking for 20 minutes at 37°C. After shaking, 2 mL of molten top agar supplemented with histidine and biotin were added to the 0.7 mL mixture and immediately poured onto a minimal glucose agar plate (volume of base agar was 20 mL). The top agar was allowed 30 minutes to solidify and then the plates were inverted and incubated for 44 hours at 37°C. After incubation the number of revertant colonies on each plate were counted.
Maron and Ames (1983) describe the conflicting views with regard to the statistical treatment of data generated from the test.

Pseudomonas = experiment: Bacterial inactivation by compound plus UVA, colony forming units; type: cell-based; conditions: 16 µM; 5 J/cm^2 irradiation; starting titer 6.5 logs
Procedure: In this example bacterial inactivation by the photoreactive nucleic acid binding compounds described herein was measured as a function of the ability of the bacteria to subsequently replicate. A gram negative bacteria was chosen as representative of the more difficult bacterial strains to inactivate.
The bacteria a strain of Pseudomonas, was inoculated into LB with a sterile loop and grown overnight in a shaker at 37°C. Based on the approximation that one OD at 610 nm is equivalent to 5 x 10^8 colony forming units (cfu)/mL, a 1:10 dilution of the culture was measured on a spectrophotometer. (manufactured by Shimatsu). The bacterial culture was added to a solution of 15% fetal bovine serum in DMEM to a final bacteria concentration of approximately 10^6/mL. An aliquot (0.8 mL) was transferred to a 1.5 mL snap-top polyethylene tube. An aliquot (0.004-0.040 mL) of the test compound stock solution prepared in water, ethanol or dimethylsulfoxide at 0.80-8.0 mM was added to the tube. Compounds were tested at a concentration of 16 µM. The tubes were placed in a light device as described in EXAMPLE I and irradiated with 1.3 J/cm^2, 1.2 J/cm^2, and finally 2.5 J/cm^2, for a total of 5 J/cm^2. 150 µL were removed for testing after each pulse period. Sterile 13 mL dilution tubes were prepared; each test compound required one tube with 0.4 mL of LB broth and four tubes containing 0.5 mL of LB broth. To make the dilutions, a 0.050 mL aliquot of the irradiated solution of phage and test compound was added to the first dilution tube of […] of media then 0.050 mL of this solution was added to the second tube of 0.5 mL medium (1:10). The second solution was then diluted serially (1:10) into the remaining tubes. 100 µL of the original sample and each dilution are plated separately onto LB agar plates and incubated at 37 °C overnight. The colony forming units were then counted the following morning and the titer of the phage remaining after phototreatment was calculated based on the dilution factors.
The following controls were run: the "bacteria only" in which bacteria was not treated with test compound and not irradiated (listed as "starting titer" in the tables below); the "UV only" in which the bacteria was irradiated in the absence of test compound. Dark controls were not performed here for reasons set forth in Example 12 above.

[2] = 100 µg/plate, Table 19 (B) experiment, background 7
[3] = 100 µg/plate, Table 19 (B) experiment, background 8
[4] = two-fold or greater increase in revertants above background and dose dependent response

SMILES: Cc1cc(=O)oc2c(C)c3oc(COCCN)c(C)c3cc12 [Compound 18, 5'-(4-amino-2-oxa)butyl-4,4',8-trimethylpsoralen]
- revertant colonies, TA98 -S9 ([1]; 10 µg/plate, Table 19 (A) experiment, background 17): 21
- revertant colonies, TA98 +S9 ([1]; 10 µg/plate, Table 19 (A) experiment, background 28): 8
- revertant colonies, TA1537 +S9 ([1]; 10 µg/plate, Table 19 (B) experiment, background 7): 8
- revertant colonies, TA1537 -S9 ([1]; 10 µg/plate, Table 19 (B) experiment, background 8): 21
- revertant colonies, TA98 -S9 ([1]; 50 µg/plate, Table 19 (A) experiment, background 17): 303
- revertant colonies, TA98 +S9 ([1]; 50 µg/plate, Table 19 (A) experiment, background 28): 6
- revertant colonies, TA1537 +S9 ([1]; 50 µg/plate, Table 19 (B) experiment, background 7): 6
- revertant colonies, TA1537 -S9 ([1]; 50 µg/plate, Table 19 (B) experiment, background 8): 303
- revertant colonies, TA98 -S9 ([1]; 100 µg/plate, Table 19 (A) experiment, background 17): 390
- revertant colonies, TA98 +S9 ([1]; 100 µg/plate, Table 19 (A) experiment, background 28): 26
- revertant colonies, TA1537 +S9 [1, 2]: 26
- revertant colonies, TA1537 -S9 [1, 3]: 390
- revertant colonies, TA98 -S9 ([1]; 200 µg/plate, Table 19 (A) experiment, background 17): 225
- revertant colonies, TA98 +S9 ([1]; 200 µg/plate, Table 19 (A) experiment, background 28): 42
- revertant colonies, TA1537 +S9 ([1]; 200 µg/plate, Table 19 (B) experiment, background 7): 42
- revertant colonies, TA1537 -S9 ([1]; 200 µg/plate, Table 19 (B) experiment, background 8): 225
- mutagenic response (Ames, summary) [1, 4]: only a weak response at high concentrations in the presence of S9 in strains TA 9o and TA 1537

SMILES: Cc1oc2c(C)c3oc(=O)cc(C)c3cc2c1CN [AMT, 4'-Aminomethyl-4,5',8-trimethylpsoralen, reference compound]
- revertant colonies, TA97a +S9 ([1]; 0.1 µg/plate): -23
- revertant colonies, TA97a -S9 ([1]; 0.1 µg/plate): 14
- revertant colonies, TA98 +S9 ([1]; 0.1 µg/plate): 1
- revertant colonies, TA98 -S9 ([1]; 0.1 µg/plate): 3
- revertant colonies, TA100 +S9 ([1]; 0.1 µg/plate): -16
- revertant colonies, TA100 -S9 ([1]; 0.1 µg/plate): -10
- revertant colonies, TA102 +S9 ([1]; 0.1 µg/plate): -20
- revertant colonies, TA102 -S9 ([1]; 0.1 µg/plate): 27
- revertant colonies, TA1537 +S9 ([1]; 0.1 µg/plate): 2
- revertant colonies, TA1537 -S9 ([1]; 0.1 µg/plate): 0
- revertant colonies, TA1538 +S9 ([1]; 0.1 µg/plate): 3
- revertant colonies, TA1538 -S9 ([1]; 0.1 µg/plate): 3
- revertant colonies, TA97a +S9 ([1]; 0.5 µg/plate): 32
- revertant colonies, TA97a -S9 ([1]; 0.5 µg/plate): 9
- revertant colonies, TA98 +S9 ([1]; 0.5 µg/plate): 3
- revertant colonies, TA98 -S9 ([1]; 0.5 µg/plate): 5
- revertant colonies, TA100 +S9 ([1]; 0.5 µg/plate): -12
- revertant colonies, TA100 -S9 ([1]; 0.5 µg/plate): 13
- revertant colonies, TA102 +S9 ([1]; 0.5 µg/plate): 5
- revertant colonies, TA102 -S9 ([1]; 0.5 µg/plate): 47
- revertant colonies, TA1537 +S9 ([1]; 0.5 µg/plate): 2
- revertant colonies, TA1537 -S9 ([1]; 0.5 µg/plate): 3
- revertant colonies, TA1538 +S9 ([1]; 0.5 µg/plate): 13
- revertant colonies, TA1538 -S9 ([1]; 0.5 µg/plate): 4
- revertant colonies, TA97a +S9 ([1]; 1 µg/plate): 32
- revertant colonies, TA97a -S9 ([1]; 1 µg/plate): 54
- revertant colonies, TA98 +S9 ([1]; 1 µg/plate): 21
- revertant colonies, TA98 -S9 ([1]; 1 µg/plate): 5
- revertant colonies, TA100 +S9 ([1]; 1 µg/plate): -19
- revertant colonies, TA100 -S9 ([1]; 1 µg/plate): 17
- revertant colonies, TA102 +S9 ([1]; 1 µg/plate): -17
- revertant colonies, TA102 -S9 ([1]; 1 µg/plate): 88
- revertant colonies, TA1537 +S9 ([1]; 1 µg/plate): 3
- revertant colonies, TA1537 -S9 ([1]; 1 µg/plate): 5
- revertant colonies, TA1538 +S9 ([1]; 1 µg/plate): 37
- revertant colonies, TA1538 -S9 ([1]; 1 µg/plate): 4
- revertant colonies, TA97a +S9 ([1]; 5 µg/plate): 149
- revertant colonies, TA97a -S9 ([1]; 5 µg/plate): 73
- revertant colonies, TA98 +S9 ([1]; 5 µg/plate): 232
- revertant colonies, TA98 -S9 ([1]; 5 µg/plate): 16
- revertant colonies, TA100 +S9 ([1]; 5 µg/plate): -6
- revertant colonies, TA100 -S9 ([1]; 5 µg/plate): 59
- revertant colonies, TA102 +S9 ([1]; 5 µg/plate): 51
- revertant colonies, TA102 -S9 ([1]; 5 µg/plate): 266
- revertant colonies, TA1537 +S9 ([1]; 5 µg/plate): 22
- revertant colonies, TA1537 -S9 ([1]; 5 µg/plate): 44
- revertant colonies, TA1538 +S9 ([1]; 5 µg/plate): 177
- revertant colonies, TA1538 -S9 ([1]; 5 µg/plate): 13
- revertant colonies, TA98 +S9 ([1]; 10 µg/plate): 403
- revertant colonies, TA98 -S9 ([1]; 10 µg/plate): 20
- revertant colonies, TA100 +S9 ([1]; 10 µg/plate): 17
- revertant colonies, TA100 -S9 ([1]; 10 µg/plate): 105
- revertant colonies, TA1537 +S9 ([1]; 10 µg/plate): 30
- revertant colonies, TA1537 -S9 ([1]; 10 µg/plate): 52
- revertant colonies, TA1538 +S9 ([1]; 10 µg/plate): 255
- revertant colonies, TA1538 -S9 ([1]; 10 µg/plate): 14
- revertant colonies, TA98 +S9 ([1]; 50 µg/plate): 620
- revertant colonies, TA98 -S9 ([1]; 50 µg/plate): 69
- revertant colonies, TA100 +S9 ([1]; 50 µg/plate): 52
- revertant colonies, TA100 -S9 ([1]; 50 µg/plate): 73
- revertant colonies, TA1537 +S9 ([1]; 50 µg/plate): 94
- revertant colonies, TA1537 -S9 ([1]; 50 µg/plate): 2688
- revertant colonies, TA98 +S9 ([1]; 100 µg/plate): 745
- revertant colonies, TA98 -S9 ([1]; 100 µg/plate): 114
- revertant colonies, TA100 +S9 ([1]; 100 µg/plate): 85
- revertant colonies, TA100 -S9 ([1]; 100 µg/plate): 75
- revertant colonies, TA1537 +S9 ([1]; 100 µg/plate): 686
- revertant colonies, TA1537 -S9 ([1]; 100 µg/plate): 2058
- revertant colonies, TA1537 +S9 [1, 2]: 500
- revertant colonies, TA1537 -S9 [1, 3]: 608
- revertant colonies, TA98 +S9 ([1]; 250 µg/plate): 933
- revertant colonies, TA98 -S9 ([1]; 250 µg/plate): 112
- revertant colonies, TA100 +S9 ([1]; 250 µg/plate): 89
- revertant colonies, TA100 -S9 ([1]; 250 µg/plate): 24
- revertant colonies, TA1537 +S9 ([1]; 250 µg/plate): 3738
- revertant colonies, TA1537 -S9 ([1]; 250 µg/plate): 434
- frameshift mutagenicity (Ames, summary) [1, 4]: frameshift mutagenicity at between 5 and 10 µg/plate in TA97a and TA98, at 5µg/plate in TA1537 and at 1 µg/plate in TA1538
- base-substitution mutagenicity (Ames, summary) ([1]; two-fold or greater increase in revertants above background and dose dependent response, TA100, TA102): no significant base-substitution mutations
- log kill of bacteria (Pseudomonas) (Pseudomonas): 5.2 logs
